This is an account of results in US10053457B2, “Hydroxyalkyl-piperazine derivatives as CXCR3 receptor modulators” (IDORSIA PHARMACEUTICALS LTD, priority 2015, dated 2018).

Each structure is given as a SMILES string.

Common to all, as to format: cell-based
The target of data set [1] is CXCR3 (Homo sapiens (Human), UniProt P49682). Kind of data set: Receptor internalization assay in human whole blood (CXCR3 surface expression on CD4 positive cells, CXCL10). To be noted: final CXCL10 9 nM, 30 min at 37° C., mean values. On the procedure: Diluted compounds are then mixed with an equal volume of CXCL10 (Peprotech) diluted in PBS. Anticoagulated venous human whole blood is added to the mixture, which is then incubated in a CO2 incubator at 37° C. to allow for ligand mediated receptor internalization (final CXCL10 concentration is 9 nM). After 30 min, the blood is mixed with fluorescently labeled CXCR3 and CD4 specific antibodies (Becton Dickinson) and incubated on ice for 10 minutes. Samples are then mixed with BD FACS Lysing Solution (Becton Dickinson) in order to eliminate red blood cells. After washing the cells with PBS containing 0.5% BSA, the samples are then analyzed in a flow cytometer (FACS Canto II, Becton Dickinson). For data analysis using FACSDiva software (Becton Dickinson), the mean fluorescence corresponding to CXCR3 cell surface expression was determined on CD4 positive cells. The program GraphPad Prism or similar software is used to fit the data to a single site dose response curve and to calculate IC50 values.
(§1) In the case where IC50 values have been determined several times for the same compound, mean values are given.

Data set [2] has as its target human CXCR3A (Homo sapiens (Human), UniProt P49682). Kind of data set: FLIPR assay (CXCL10-induced calcium signal). To be noted: CHO-K1 cells expressing human CXCR3A coupled to Galpha(16); CXCL10 agonist 20 nM; mean values.
Text: as §1

For data set [3], the target named is hERG K channel (Homo sapiens (Human), UniProt Q12809). Kind of data set: hERG Q-Patch assay. Conditions: CHO cells expressing hERG, K+ tail current 3 min after application, mean of two or three experiments. As to the method: Compounds are evaluated for block of the hERG K channel using CHO cells stably expressing the hERG gene (accession number U04270, bSys, Witterswil, Switzerland) and the QPatch robotic platform (Sophion, Ballerup, Denmark) in single-cell mode at room temperature. Cells are grown in culture flasks at 37° C. in 5% CO2, in culture medium (Ham's F-12 Nutrient Mixture, Invitrogen 21765-029) supplemented with 9% (v/v) fetal calf serum, 0.9% Penicillin/Streptomycin (10,000 U/mL, Invitrogen 15140148), 100 μg/mL Hygromycin B (Invitrogen 10687010). When the cells are ˜80% confluent (every 2-3 days), they are either split for further culture or used for electrophysiology. For further culture, cells are detached with 0.25% Trypsin EDTA solution (Invitrogen 25200-056) and a fraction of the cells (10-30%) is reseeded in culture medium. For electrophysiology, on the experimental day, cells are detached with 0.25% Trypsin EDTA solution and all cells are suspended in suspension medium (293 SFM II, Invitrogen 11686-029) supplemented with 20 mM HEPES and 0.04 mg/mL Trypsin inhibitor. Cells are kept in suspension medium at 32-35° C. in the QPatch robot until use, at which time aliquots are transferred to the extracellular solution (in mM: NaCl 150; KCl 4; CaCl2 1.2; MgCl2 1; HEPES 10; pH 7.4 with NaOH) containing 0.3% v/v DMSO and applied to the test plates. K^+ currents are measured with the patch-voltage-clamp technique in the whole-cell configuration with the internal solution (in mM: KCl, 140; NaCl, 10; MgCl2, 1; HEPES, 10: EGTA, 5; pH=7.2 with KOH). Currents are low-pass filtered using the internal Bessel filter of the QPatch robot with a cut-off frequency of 2 kHz and are digitized at 10 kHz. K^+ tail currents are produced from a holding voltage of −80 mV by a 500-ms depolarization to +20 mV followed by a 500-ms repolarization to −40 mV; tail current amplitudes are measured at the end of the repolarization to −40 mV. The pulse pattern is repeated every 10 sec during the experiment, baseline K^+ current is measured after 3 min in extracellular solution, test-solution containing compound is then applied, and K^+ current in presence of compound is measured 3 minutes after application to the cells. The respective test-solution is prepared by (1) dissolving the test-compound in pure DMSO, (2) diluting this DMSO solution in extracellular solution, and (3) adding further DMSO, such that the final test-solution has a concentration of either 300 nM or 3000 nM of the test-compound and contains 0.3% v/v DMSO. Compound effects are quantified as % block by dividing the current in presence of compound by the baseline current; two or three experiments are performed for each compound and the final value represents the mean of the results of each experiment.
(The hERG channel carries a current that helps repolarise heart muscle cells.)

Sequence of hERG K channel (Q12809 whole entry): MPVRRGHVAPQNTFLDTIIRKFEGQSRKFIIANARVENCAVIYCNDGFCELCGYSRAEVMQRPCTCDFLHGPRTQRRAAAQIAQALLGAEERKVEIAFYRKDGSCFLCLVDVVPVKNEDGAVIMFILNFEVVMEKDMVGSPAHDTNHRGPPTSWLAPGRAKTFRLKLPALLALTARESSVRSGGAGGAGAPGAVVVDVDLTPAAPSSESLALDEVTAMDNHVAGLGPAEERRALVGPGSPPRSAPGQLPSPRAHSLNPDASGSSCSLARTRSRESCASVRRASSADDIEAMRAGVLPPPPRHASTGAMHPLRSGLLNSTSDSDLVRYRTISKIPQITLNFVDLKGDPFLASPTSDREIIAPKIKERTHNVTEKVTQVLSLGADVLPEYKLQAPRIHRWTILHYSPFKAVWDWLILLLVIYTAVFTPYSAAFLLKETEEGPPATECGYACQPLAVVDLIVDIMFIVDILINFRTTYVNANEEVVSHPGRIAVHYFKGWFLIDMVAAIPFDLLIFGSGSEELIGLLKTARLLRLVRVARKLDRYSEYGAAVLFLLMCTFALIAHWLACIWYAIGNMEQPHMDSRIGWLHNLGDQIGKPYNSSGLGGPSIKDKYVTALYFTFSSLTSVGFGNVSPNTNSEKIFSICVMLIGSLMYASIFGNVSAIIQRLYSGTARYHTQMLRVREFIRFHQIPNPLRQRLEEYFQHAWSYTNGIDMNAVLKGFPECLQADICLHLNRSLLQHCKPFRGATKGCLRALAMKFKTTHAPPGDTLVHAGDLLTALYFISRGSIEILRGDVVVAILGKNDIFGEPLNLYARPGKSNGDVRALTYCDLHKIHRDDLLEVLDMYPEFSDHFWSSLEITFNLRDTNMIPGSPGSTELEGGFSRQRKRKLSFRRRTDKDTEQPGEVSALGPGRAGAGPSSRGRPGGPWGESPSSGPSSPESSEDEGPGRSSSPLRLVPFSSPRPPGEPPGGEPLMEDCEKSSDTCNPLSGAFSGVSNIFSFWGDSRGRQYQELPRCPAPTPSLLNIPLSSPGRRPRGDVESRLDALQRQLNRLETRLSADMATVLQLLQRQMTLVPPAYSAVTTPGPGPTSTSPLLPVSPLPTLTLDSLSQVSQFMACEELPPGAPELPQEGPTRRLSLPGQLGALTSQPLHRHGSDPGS
Sequence of human CXCR3A (P49682 whole entry): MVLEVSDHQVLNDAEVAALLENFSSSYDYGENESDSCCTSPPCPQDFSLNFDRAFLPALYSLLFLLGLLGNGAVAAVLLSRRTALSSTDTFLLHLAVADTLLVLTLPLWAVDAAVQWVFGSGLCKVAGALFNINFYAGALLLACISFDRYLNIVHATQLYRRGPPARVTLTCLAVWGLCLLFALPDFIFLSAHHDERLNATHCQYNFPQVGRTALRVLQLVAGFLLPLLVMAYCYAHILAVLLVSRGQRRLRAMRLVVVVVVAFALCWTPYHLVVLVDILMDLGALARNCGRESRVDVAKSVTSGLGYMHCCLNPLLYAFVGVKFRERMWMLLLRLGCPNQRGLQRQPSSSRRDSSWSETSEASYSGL
Sequence of CXCR3 (P49682 whole entry): as above

Consider `O=C(Cn1cnc(C(F)(F)F)n1)N1CCN(c2sc(C(F)(F)F)nc2-c2cnc(C3CC3)nc2)C[C@H]1CO` [Example 9, 1-{(S)-4-[4-(2-Cyclopropyl-pyrimidin-5-yl)-2-trifluoromethyl-thiazol-5-yl]-2-hydroxymethyl-piperazin-1-yl}-2-(3-trifluoromethyl-[1,2,4]triazol-1-yl)-ethanone], for which the IC50 – broadly, the midpoint of a concentration-inhibition curve – in data set [1] was 1520 nM; in data set [2], 1.3 nM. The figures for the “% block” value in data set [3] (concentration 300 nM) and in data set [3] (concentration 3000 nM) were 8% and 24%, respectively.
In the same order, the values of `COc1ccc2c(ccn2CC(=O)N2CCN(c3sc(C(F)(F)F)nc3-c3cnc(C(F)(F)F)nc3)C[C@@H]2CO)c1` [Example 15, 1-{(R)-2-Hydroxymethyl-4-[2-trifluoromethyl-4-(2-trifluoromethyl-pyrimidin-5-yl)-thiazol-5-yl]-piperazin-1-yl}-2-(5-methoxy-indol-1-yl)-ethanone] are 1660 nM, 2.3 nM, 8% and 35%.
In the same order, the values of `Cc1nc(-c2ncn(CC(=O)N3CCN(c4sc(C(F)(F)F)nc4-c4cnc(C(F)(F)F)nc4)C[C@@H]3CO)n2)no1` [Example 18, 1-{(R)-2-Hydroxymethyl-4-[2-trifluoromethyl-4-(2-trifluoromethyl-pyrimidin-5-yl)-thiazol-5-yl]-piperazin-1-yl}-2-[3-(5-methyl-[1,2,4]oxadiazol-3-yl)-[1,2,4]triazol-1-yl]-ethanone] are 6500 nM, 510 nM, 6% and 13%.
In the same order, the values of `O=C(Cn1cnc(C(F)(F)F)n1)N1CCN(c2sc(C(F)(F)F)nc2-c2cnc(C(F)(F)F)nc2)C[C@H]1CCO` [Example 28, 1-{(R)-2-(2-Hydroxy-ethyl)-4-[2-trifluoromethyl-4-(2-trifluoromethyl-pyrimidin-5-yl)-thiazol-5-yl]-piperazin-1-yl}-2-(3-trifluoromethyl-[1,2,4]triazol-1-yl)-ethanone] are 214 nM, 1.1 nM, 6% and 40%.
For `CCc1ncnn1CC(=O)N1CCN(c2sc(C(F)(F)F)nc2-c2cnc(C(F)(F)F)nc2)C[C@H]1CCO` [Example 33, 2-(5-Ethyl-[1,2,4]triazol-1-yl)-1-{(R)-2-(2-hydroxy-ethyl)-4-[2-trifluoromethyl-4-(2-trifluoromethyl-pyrimidin-5-yl)-thiazol-5-yl]-piperazin-1-yl}-ethanone], the IC50 in data set [1] is 652 nM; in data set [2] it was 27 nM. Moreover, the figures for the “% block” value in data set [3] (concentration 300 nM) and in data set [3] (concentration 3000 nM) were −5% and 6%, respectively.
In the same order, the values of `Cc1ncn(CC(=O)N2CCN(c3sc(C(F)(F)F)nc3-c3cnc(C(F)(F)F)nc3)C[C@H]2CCO)n1` [Example 35, 1-{(R)-2-(2-Hydroxy-ethyl)-4-[2-trifluoromethyl-4-(2-trifluoromethyl-pyrimidin-5-yl)-thiazol-5-yl]-piperazin-1-yl}-2-(3-methyl-[1,2,4]triazol-1-yl)-ethanone] are 102 nM, 2.9 nM, 11% and 25%.
In the same order, the values of `CCOc1ncc(-c2nc(C(F)(F)F)sc2N2CCN(C(=O)Cn3nc(C)nc3C)[C@H](CO)C2)cn1` [Example 7, 2-(3,5-Dimethyl-[1,2,4]triazol-1-yl)-1-{(S)-4-[4-(2-ethoxy-pyrimidin-5-yl)-2-trifluoromethyl-thiazol-5-yl]-2-hydroxymethyl-piperazin-1-yl}-ethanone] are 2270 nM, 3.1 nM, 24% and 45%.
